# Laboratory results reported in PMC6522941, “Design, synthesis, and anticancer evaluation of novel quinoline derivatives of ursolic acid with hydrazide, oxadiazole, and thiadiazole moieties as potent MEK inhibitors” (Journal of Enzyme Inhibition and Medicinal Chemistry, 2019).
# Assays:
# HeLa cells [1] = assay: Annexin V-FITC/PI dual staining apoptosis assay; assay type: cell-based, human; settings: 48 h, control 6.44
# Description: The extent of apoptosis was quantitatively measured using Annexin V-FITC/PI dual staining assay. HeLa cells were seeded into a six-well plate at 5 × 10^5 cells per well in 10% foetal calf serum (FBS)-DMEM into six-well plates and treated with different concentrations of the indicated compound 4d for 48 h. The cells were detached with 0.25% trypsin, washed with ice-cold PBS for twice and then resuspended in 1 × Binding buffer ([…]). The cells were stained with 5 μL of Annexin V-FITC and 5 μL of PI ([…]) to each tube. The cells were gently vortexed and incubated in the dark at room temperature for 15 min and then keep them at 4 °C. The samples were analysed by a flow cytometer (Becton-Dickinson FACSCalibur, Totowa, NJ, USA) and data were analysed using the FlowJo software.
# The Annexin V-FITC/PI dual staining assay on HeLa cells treated with compound 4d was carried out to examine the association of compound 4d-mediated cytotoxicity with induction of apoptosis.
# [2] = tested on: ERK1/2 and pERK1/2 in HeLa cells; assay: Western blot of ERK and pERK; assay type: cell-based, human; settings: 48 h
# Description: (§1) HeLa cells were seeded at a density of 5 × 10^6 cells per well and attached for 8 h, and then treated with different concentrations of compound 4d for 48 h. After the treatment, the cells were harvested and washed twice with PBS. The harvested cells were lysed with radio-immunoprecipitation assay (RIPA) lysis buffer (Beyotime Biotech., Nantong, China) with 1% cocktail (Sigma-Aldrich, St. Louis, MO, USA). Whole-cell protein lysates were prepared and centrifuged at 12,000 rpm for 10 min at 4 °C. The total proteins were determined using Bradford reagent (Bio-Rad Laboratories, Inc., Hercules, CA, USA). Exactly 40 μg of protein per lane was separated through sodium dodecyl sulphate-polyacrylamide gel electrophoresis and then transferred onto a polyvinylidene difluoride membrane (Millipore, Bedford, MA, USA). The membranes were incubated with each antibody and detected through immunoblot analysis. All of the antibodies were purchased from Cell signalling Technology, Inc. (Boston, MA, USA) and diluted in accordance with the manufacturer’s instruction. Proteins were visualised using a C-Digit® imaging system (LI-COR, Lincoln, NE, USA).
# Subsequently, to evaluate the MEK inhibition of compound 4d in cancer cells, western blot analyses were also carried out to evaluate the expression levels of ERK and phosphorylated ERK (pERK) proteins in compound 4d-treated HeLa cells.
# SMMC-7721 cells = assay: MTT cytotoxic assay, SMMC-7721; assay type: cell-based; settings: Homo sapiens, 72 h
# Description: (§2) Human breast cancer cell line (MDA-MB-231), cervical carcinoma cell line (HeLa), the liver cancer cell line (SMMC-7721) and normal hepatocyte cell line (QSG-7701) were maintained in Dulbecco Modified Eagle Medium (DMEM) containing 4.0 mM L-Glutamine and 4500 mg/L Glucose supplemented with 10% (v/v) foetal bovine serum (FBS) and 100 U/mL penicillin/streptomycin at 37 °C in humidified atmosphere of 5% CO2 and 95% air.
# (§3) Exponentially growing MDA-MB-231, Hela and SMMC-7721 cell lines were seeded into 96-well plate for 100 μL and treated with different concentrations of the synthetic compounds for 72 h, and then 10 μL of MTT (10 mg/mL) was added and incubation for 3 ∼ 4 h at 37 °C. The generated purple formazan crystals from viable can be dissolved by adding 100 μL DMSO. The plates were swirled gently for 5 min and quantified by measuring the OD of the plates at the wavelength of 540 nm. Each concentration was repeated in three wells and the same experimental condition was provided for all compounds. The results were expressed as IC50 values with standard deviations, which was defined as the concentration at which 50% survival of cells was discerned. Etoposide was co-assayed as positive control.
# (§4) The in vitro cytotoxic activity of derivatives 3a–d, 4a–h, 5a–h, and 6a–h were evaluated by MTT assay against human breast cancer cell line (MDA-MB-231), cervical carcinoma cell line (HeLa), hepatocarcinoma cell line (SMMC-7721) and human normal hepatocyte cell line (QSG-7701). The anticancer drug etoposide was co-assayed as the positive control. All tested compounds were dissolved in DMSO and the stock solutions were diluted by DMEM medium before treatment of the cultured cells.
# HeLa cells [3] = assay: JC-1 mitochondrial membrane potential assay; assay type: cell-based, human; settings: 24 h, control 7.59
# Description: The JC-1 mitochondrial membrane potential assay kit (Keygene Biotech., Nanjing, China) was employed to measure mitochondrial depolarisation in HeLa cells. Briefly, cells cultured in six-well plates after indicated treatments by compound 4d were incubated with an equal volume of JC-1 staining solution (5 μg/mL) at 37 °C for 20 min and rinsed twice with PBS. Mitochondrial membrane potentials were monitored by determining the relative amounts of dual emissions from mitochondrial JC-1 monomers or aggregates using flow cytometry (Becton-Dickinson FACSCalibur, New York, NY, USA). Mitochondrial membrane depolarisation is indicated by an increase in the percentage of cells with low ΔΨm (green fluorescence and lower right quadrant) compared with cells with high ΔΨm (red fluorescence and upper right quadrant).
# As a kind of important organelle, Mitochondria play indispensable roles not only on supplying metabolic energy in the form of ATP, but also on regulating the signal transmission during the apoptosis of cancer cells. In addition, the mitochondrial dysfunction can be aroused under high ROS exposure, leading to the collapse of mitochondrial membrane potential (ΔΨm), which is a characteristic phenomenon of early apoptosis. Loss of ΔΨm can be detected using the fluorescent cationic dye JC-1, which spontaneously forms red fluorescent dimers (J aggregates) under high ΔΨm, whereas its monomeric form showing green fluorescence is prevalent in cells with low ΔΨm. Green and red fluorescence can be observed at 527 and 590 nm, respectively. Thus, changes in the green/red fluorescence ratio reflect the variation in ΔΨm, which can be quantitatively analysed by flow cytometry.
# [4] = tested on: p90RSK, p-p90RSK, BAD, BIM in HeLa cells; assay: Western blot of downstream proteins of ERK; assay type: cell-based, human; settings: 0.05, 0.1, 0.2 μM, 48 h
# Description: as §1
# In addition, the effect of compound 4d on the downstream proteins of ERK (p90RSK, BAD, and BIM) was also investigated by western blot analysis. It is known that activated ERK1/2 (p-ERK1/2) directly phosphorylates and activates p90RSK, which subsequently decreases the level of pro-apoptotic BH3-only proteins BIM and BAD and inhibits their apoptosis-promoting activity.
# QSG-7701 cells = assay: MTT cytotoxic assay, normal hepatocyte QSG-7701; assay type: cell-based, human
# Description: as §2, §3, §4
smiles,measurement,setting,value
"CC(=O)NNC(=O)C12CCC(C)C(C)C1C1=CCC3C4(C)Cc5cc6cc(Cl)ccc6nc5C(C)(C)C4CCC3(C)C1(C)CC2 (stereo not drawn) [Compound 4d, N-[5′-chloro-ursa-12-en-(2,3)-quinoline-28-oyl]-acetohydrazide]",percentage of early and late apoptotic cells,HeLa cells [1]; 0.05 μM,37.56%
same,percentage of early and late apoptotic cells,HeLa cells [1]; 0.1 μM,58.31%
same,percentage of early and late apoptotic cells,HeLa cells [1]; 0.2 μM,74.22%
same,"expression level of pERK1/2, % of the control group",[2]; 0.05 μM,74.7%
same,"expression level of pERK1/2, % of the control group",[2]; 0.1 μM,41.3%
same,"expression level of pERK1/2, % of the control group",[2]; 0.2 μM,29.5%
same,expression levels of ERK1/2,"[2]; 0.05, 0.1, 0.2 μM",slightly decreased
same,expression levels of pERK1/2,"[2]; 0.05, 0.1, 0.2 μM",significantly downregulated
same,IC50,SMMC-7721 cells,0.34 ± 0.03 µM
same,"Cells with low ΔΨm (green fluorescence, lower right quadrant)",HeLa cells [3]; 0.05 μM,36.33%
same,"Cells with low ΔΨm (green fluorescence, lower right quadrant)",HeLa cells [3]; 0.1 μM,54.08%
same,"Cells with low ΔΨm (green fluorescence, lower right quadrant)",HeLa cells [3]; 0.2 μM,70.83%
same,expression level of p90RSK,[4],significantly decreased
same,expression level of p-p90RSK,[4],significantly decreased
same,level of BAD,[4],upregulated
same,level of BIM,[4],upregulated
same,IC50,"QSG-7701 cells; Homo sapiens, QSG7701, MTT, normal hepatocyte cell line",10.8 ± 0.72 µM
same,Selectivity,QSG-7701 cells; IC50 (QSG-7701)/IC50 (HeLa),134.5
